Measured values: paper PMC4289024 (Journal of Medicinal Chemistry, 2014)

Columns and labels:
293T cells [1] = test: Western blot of 293T cells treated with inhibitors; assay type: cell-based, human
293T cells [2] = settings: 30 min; cited from earlier work

COc1ccc(-c2ccc3c(N4CCOC[C@@H]4C)nc(N4CCOC[C@@H]4C)nc3n2)cc1CO [AZD8055]
phosphorylation of AKT (pAKT) (293T cells [1]; 3 and 16 h of treatment): decrease in pAKT at T308 and S473
phosphorylation of S6 (pS6 levels) (293T cells [1]; 3 and 16 h of treatment): significant decrease in pS6 levels at both the S235 and S240 sites

CCc1cncnc1N1CCN(Cc2nc3ccc(C(F)(F)F)cc3[nH]2)CC1 [PF-4708671]
phosphorylation of AKT (pAKT) (293T cells [1]; 3 and 16 h of treatment): no effect on the phosphorylation of AKT
phosphorylation of S6 (293T cells [1]; 3 h time point): modest decrease in phosphorylation of S6
phosphorylation of S6 (293T cells [1]; 16 h time point): returned to near basal levels
S6 phosphorylation (293T cells [2]): significant reduction in S6 phosphorylation
